Results published in patent publication EP4700027A1, “CRYSTALLINE FORM OF NITROGEN-CONTAINING TETRACYCLIC COMPOUND AND PREPARATION METHOD THEREFOR” (Jiangsu Hengrui Pharmaceuticals Co., Ltd., priority 2023, dated 2024).

Tests used:
[1] = Dynamic vapor sorption (DVS) hygroscopicity testing; format: physicochemical; conditions: for desorption process of the sample versus its adsorption process: humidity changing from 0% to 95% RH
From the text: According to the description of hygroscopicity characteristics and the definitions of hygroscopic weight gains in "General Rule 9103, Guidelines for Hygroscopicity Trials for Pharmaceuticals" in the Chinese Pharmacopoeia, Volume IV, 2015 Edition, • deliquescent: sufficient water is absorbed to form a liquid; • extremely hygroscopic: the hygroscopic weight gain is not less than 15%; • hygroscopic: the hygroscopic weight gain is less than 15% but not less than 2%; • slightly hygroscopic: the hygroscopic weight gain is less than 2% but not less than 0.2%; nonhygroscopic or practically nonhygroscopic: the hygroscopic weight gain is less than 0.2%.
DVS refers to dynamic vapor sorption: The analysis was performed using SMS DVS Advantage; at 25 °C, the humidity was changed as follows: 50%-95%-0%-95%-50%, in steps of 10% (5% for the last step) (specific humidity ranges are shown in corresponding patterns, and those listed here were used in most cases); the criterion was dm/dt being not greater than 0.002%.

[2] = Influencing factor stability study on crystal forms (light, high temperature, high humidity, 30 days); format: physicochemical
[3] = accelerated experimental conditions (70% RH)
[4] = normal storage conditions (25 °C and 60% RH)
[5] = Light exposure (4500 Lux), 7 days
[6] = Light exposure (4500 Lux), 14 days
[7] = Light exposure (4500 Lux), 30 days
[8] = Light exposure (4500 Lux), 5 days
[9] = Light exposure (4500 Lux), 10 days

With `C=CC(=O)N1CCN2C(=O)c3cc(F)c(-c4ccc(F)c5sc(N)c(C#N)c45)c4c(Cl)nn(c34)CC[C@H]2C1` [crystal form M] the hygroscopic weight gain [1, 3] was “about 0.55%”, the “crystal form re-identified after DVS testing” value (from here on “crystal form re-identified”) [1] was “did not change” and the hygroscopic weight gain ([1]; extreme conditions (90% RH)) was “about 0.73%”. The “desorption process of the sample versus its adsorption process” value [1] was “substantially overlapped”, the hygroscopic weight gain [1, 4] was “about 0.48%” and the Color and state ([2]; 40 °C, 7 days) was “Off-white solid”. The Crystal form ([2]; 40 °C, 7 days) was “Did not change”, the “Purity (%)” value ([2]; 40 °C, 7 days) was 99.1% and the Color and state ([2]; 40 °C, 14 days) was “Off-white solid”. For the same compound, the Crystal form ([2]; 40 °C, 14 days) was “Did not change”, the “Purity (%)” value ([2]; 40 °C, 14 days) was 99.1% and the Color and state ([2]; 40 °C, 30 days) was “Off-white solid”. For the same compound, the Crystal form ([2]; 40 °C, 30 days) was “Did not change”, the “Purity (%)” value ([2]; 40 °C, 30 days) was 98.9% and the Color and state ([2]; 60 °C, 7 days) was “Off-white solid”. For the same compound, the Crystal form ([2]; 60 °C, 7 days) was “Did not change”, the “Purity (%)” value ([2]; 60 °C, 7 days) was 99.1% and the Color and state ([2]; 60 °C, 14 days) was “Off-white solid”. The Crystal form ([2]; 60 °C, 14 days) was “Did not change”, the “Purity (%)” value ([2]; 60 °C, 14 days) was 99.1% and the Color and state ([2]; 60 °C, 30 days) was “Off-white solid”. For the same compound, the Crystal form ([2]; 60 °C, 30 days) was “Did not change”, the “Purity (%)” value ([2]; 60 °C, 30 days) was 99.0% and the Color and state ([2]; 75% RH, 7 days) was “Off-white solid”. For the same compound, the Crystal form ([2]; 75% RH, 7 days) was “Did not change”, the “Purity (%)” value ([2]; 75% RH, 7 days) was 99.2% and the Color and state ([2]; 75% RH, 14 days) was “Off-white solid”. The Crystal form ([2]; 75% RH, 14 days) was “Did not change”, the “Purity (%)” value ([2]; 75% RH, 14 days) was 99.2% and the Color and state ([2]; 75% RH, 30 days) was “Off-white solid”. The Crystal form ([2]; 75% RH, 30 days) was “Did not change”, the “Purity (%)” value ([2]; 75% RH, 30 days) was 99.2% and the Color and state ([2]; 92.5% RH, 7 days) was “Off-white solid”. The Crystal form ([2]; 92.5% RH, 7 days) was “Did not change”, the “Purity (%)” value ([2]; 92.5% RH, 7 days) was 99.2% and the Color and state ([2]; 92.5% RH, 14 days) was “Off-white solid”. The Crystal form ([2]; 92.5% RH, 14 days) was “Did not change”, the “Purity (%)” value ([2]; 92.5% RH, 14 days) was 99.2% and the Color and state ([2]; 92.5% RH, 30 days) was “Off-white solid”. For the same compound, the Crystal form ([2]; 92.5% RH, 30 days) was “Did not change”, the “Purity (%)” value ([2]; 92.5% RH, 30 days) was 99.2% and the Color and state ([2]; Initial, 0 days) was “Off-white solid”. The Crystal form ([2]; Initial, 0 days) was “Crystal form M”, the “Purity (%)” value ([2]; Initial, 0 days) was 99.2% and the Color and state [2, 5] was “Off-white solid”. For the same compound, the Crystal form [2, 5] was “Did not change”, the “Purity (%)” value [2, 5] was 99.2% and the Color and state [2, 6] was “Off-white solid”. For the same compound, the Crystal form [2, 6] was “Did not change”, the “Purity (%)” value [2, 6] was 99.2% and the Color and state [2, 7] was “Off-white solid”. For the same compound, the Crystal form [2, 7] was “Did not change” and the “Purity (%)” value [2, 7] was 99.0%.

For `C=CC(=O)N1CCN2C(=O)c3cc(F)c(-c4ccc(F)c5sc(N)c(C#N)c45)c4c(Cl)nn(c34)CC[C@H]2C1` [crystal form F], the hygroscopic weight gain [1, 3] was “about 6.44%”, the “crystal form re-identified” value [1] was “did not change” and the hygroscopic weight gain ([1]; extreme conditions (90% RH)) was “about 6.65%”. For the same compound, the “desorption process of the sample versus its adsorption process” value [1] was “did not overlap”, the hygroscopic weight gain [1, 4] was “about 6.35%” and the Color and state ([2]; 40 °C, 5 days) was “Off-white solid”. The Crystal form ([2]; 40 °C, 5 days) was “Did not change”, the “Purity (%)” value ([2]; 40 °C, 5 days) was 97.8% and the Color and state ([2]; 40 °C, 10 days) was “Off-white solid”. The Crystal form ([2]; 40 °C, 10 days) was “Did not change”, the “Purity (%)” value ([2]; 40 °C, 10 days) was 97.5% and the Color and state ([2]; 40 °C, 30 days) was “Off-white solid”. For the same compound, the Crystal form ([2]; 40 °C, 30 days) was “Did not change”, the “Purity (%)” value ([2]; 40 °C, 30 days) was 96.7% and the Color and state ([2]; 60 °C, 5 days) was “Off-white solid”. For the same compound, the Crystal form ([2]; 60 °C, 5 days) was “Did not change”, the “Purity (%)” value ([2]; 60 °C, 5 days) was 97.8% and the Color and state ([2]; 60 °C, 10 days) was “Off-white solid”. The Crystal form ([2]; 60 °C, 10 days) was “Did not change”, the “Purity (%)” value ([2]; 60 °C, 10 days) was 97.7% and the Color and state ([2]; 60 °C, 30 days) was “Off-white solid”. The Crystal form ([2]; 60 °C, 30 days) was “Did not change”, the “Purity (%)” value ([2]; 60 °C, 30 days) was 97.3% and the Color and state ([2]; 75% RH, 5 days) was “Off-white solid”. For the same compound, the Crystal form ([2]; 75% RH, 5 days) was “Did not change”, the “Purity (%)” value ([2]; 75% RH, 5 days) was 97.9% and the Color and state ([2]; 75% RH, 10 days) was “Off-white solid”. For the same compound, the Crystal form ([2]; 75% RH, 10 days) was “Did not change”, the “Purity (%)” value ([2]; 75% RH, 10 days) was 97.9% and the Color and state ([2]; 75% RH, 30 days) was “Off-white solid”. For the same compound, the Crystal form ([2]; 75% RH, 30 days) was “Did not change”, the “Purity (%)” value ([2]; 75% RH, 30 days) was 97.9% and the Color and state ([2]; 92.5% RH, 5 days) was “Off-white solid”. For the same compound, the Crystal form ([2]; 92.5% RH, 5 days) was “Did not change”, the “Purity (%)” value ([2]; 92.5% RH, 5 days) was 97.9% and the Color and state ([2]; 92.5% RH, 10 days) was “Off-white solid”. The Crystal form ([2]; 92.5% RH, 10 days) was “Did not change”, the “Purity (%)” value ([2]; 92.5% RH, 10 days) was 97.9% and the Color and state ([2]; 92.5% RH, 30 days) was “Off-white solid”. The Crystal form ([2]; 92.5% RH, 30 days) was “Did not change”, the “Purity (%)” value ([2]; 92.5% RH, 30 days) was 97.9% and the Color and state ([2]; Initial, 0 days) was “Off-white solid”. For the same compound, the Crystal form ([2]; Initial, 0 days) was “Crystal form F”, the “Purity (%)” value ([2]; Initial, 0 days) was 97.9% and the Color and state [2, 8] was “Off-white solid”. For the same compound, the Crystal form [2, 8] was “Did not change”, the “Purity (%)” value [2, 8] was 97.8% and the Color and state [2, 9] was “Off-white solid”. For the same compound, the Crystal form [2, 9] was “Did not change”, the “Purity (%)” value [2, 9] was 97.8% and the Color and state [2, 7] was “Off-white solid”. The Crystal form [2, 7] was “Did not change” and the “Purity (%)” value [2, 7] was 97.7%.

With `C=CC(=O)N1CCN2C(=O)c3cc(F)c(-c4ccc(F)c5sc(N)c(C#N)c45)c4c(Cl)nn(c34)CC[C@H]2C1` [crystal form N] the hygroscopic weight gain [1, 3] was “about 3.06%”, the “crystal form re-identified” value [1] was “did not change” and the hygroscopic weight gain ([1]; extreme conditions (90% RH)) was “about 3.18%”. For the same compound, the “desorption process of the sample versus its adsorption process” value [1] was “substantially overlapped”, the hygroscopic weight gain [1, 4] was “about 3.00%” and the Color and state ([2]; 60 °C, 30 days) was “Off-white solid”. For the same compound, the Crystal form ([2]; 60 °C, 30 days) was “Did not change”, the “Purity (%)” value ([2]; 60 °C, 30 days) was 98.9% and the Color and state ([2]; 75% RH, 7 days) was “Off-white solid”. For the same compound, the Crystal form ([2]; 75% RH, 7 days) was “Did not change”, the “Purity (%)” value ([2]; 75% RH, 7 days) was 99.2% and the Color and state ([2]; 75% RH, 14 days) was “Off-white solid”. For the same compound, the Crystal form ([2]; 75% RH, 14 days) was “Did not change”, the “Purity (%)” value ([2]; 75% RH, 14 days) was 99.1% and the Color and state ([2]; 75% RH, 30 days) was “Off-white solid”. For the same compound, the Crystal form ([2]; 75% RH, 30 days) was “Did not change” and the “Purity (%)” value ([2]; 75% RH, 30 days) was 99.1%.
